Measured values as given in US11213517B2, “Pharmaceutical combination comprising a T-type calcium channel blocker” (IDORSIA PHARMACEUTICALS LTD, priority 2016, dated 2022).
“And” between values parts separate entries of the source, which are not always exact repeats. Equal entries are not always repeated. Where two headings read alike, the source gives them in different places.

What was measured:
[1] = system: audiogenic seizure-sensitive juvenile DBA/2J mice; experiment: Audiogenic seizure-sensitive juvenile DBA/2J mouse model of generalized tonic-clonic seizures; assay type: in vivo; set-up: key: 0 none, 1 wild running, 2 clonus, 3 hind-limb tonic extension; conditions: COMPOUND 1 10 mg/kg 3 h + vehicle 1 h before stimulus, oral gavage; mean ± SEM; 10 mg/kg
Excerpt: Audiogenic Seizure-Sensitive Juvenile DBA/2J Mouse Model of Generalized Tonic-Clonic Seizures
The inbred DBA/2J mouse strain carries an increased general susceptibility for acute generalized convulsive seizures induced by either pharmacological, electrical or, as juvenile, auditory stimuli. At the age of 17 to 28 days (juvenile), they show tonic-clonic convulsions when exposed to a loud tone.
Male juvenile DBA/2J mice (22-24 days old, body weight between 6.6 and 14.5 grams) were used. Each mouse was placed individually in the exposure chamber, an hemispheric acrylic glass dome (diameter: 50 cm) within a sound-attenuated box. After 60 seconds of habituation, an auditory stimulus of mixed frequency tone (15-20 kHz at 110 dB) was played from a speaker placed on the top center of the dome.
The sound-attenuated box was equipped with lights and a camera system in order to observe and record the behavioral seizure response classified as following: • stage 0, no response • stage 1, wild running • stage 2, clonus • stage 3, tonic extension of the hind limbs.
(§1) Different combination efficacy experiments are performed. […] Each experiment consists of four treatment groups: • 1. Vehicle (10% Polyethylene glycol400 (PEG400)/90% methylcellulose (0.5% in water; MC0.5%)), 3 h before exposure to the auditory stimulus+vehicle, 1 h before exposure to the auditory stimulus; • 2. COMPOUND 1 (in 10% PEG400/90% MC0.5%), 3 h before exposure to the auditory stimulus+vehicle, 1 h before exposure to the auditory stimulus; • 3. Vehicle, 3 h before exposure to the auditory stimulus+AED (in 10% PEG400/90% MC0.5%), 1 h before exposure to the auditory stimulus; and • 4. COMPOUND 1 (in 10% PEG400/90% MC0.5%), 3 h before exposure to the auditory stimulus+AED (in 10% PEG400/90% MC0.5%), 1 h before exposure to the auditory stimulus.

[2] = Plasma and brain concentrations of drugs at the end of the audiogenic seizure experiment (LC-MS); assay type: in vivo, mouse; conditions: for plasma and brain concentrations after administration of the compounds alone or in combination: juvenile DBA/2J mice; for concentration at 3 h: DBA/2J, mouse
Procedure: Briefly, blood was sampled from the vena cava caudalis with a syringe pre-filled with EDTA (ethylenediamine tetraacetic acid) as anticoagulant and centrifuged to yield plasma (for 10 minutes, at 4° C. and 5000 rpm (rounds per minute)). Brain was sampled and homogenized into one volume of cold phosphate buffer (pH 7.4). Following extraction with methanol, concentrations of the compound in plasma and brain were determined using liquid chromatography coupled to mass spectrometry.
as §1

[3] = analyte COMPOUND 1, COMPOUND 1 10 mg/kg 3 h + vehicle 1 h before stimulus, oral gavage, mean ± SEM, 10 mg/kg

N#Cc1ccc(Cn2ccc(NC(=O)Cc3ccc(C4(C(F)(F)F)CC4)cc3)n2)nc1 [COMPOUND 1, N-[1-(5-Cyano-pyridin-2-ylmethyl)-1H-pyrazol-3-yl]-2-[4-(1-trifluoromethyl-cyclopropyl)-phenyl]-acetamide]
Seizure stage (maximal seizure stage observed during exposure to auditory stimulus) [1]: 3 and 2.7 ± 0.3 and 3.0 ± 0.0 and 2.9 ± 0.1 and 2.7 ± 0.2 and 2.8 ± 0.2 | plasma and brain concentrations after administration of the compounds alone or in combination ([2]; COMPOUND 1 and LEV): similar | plasma and brain concentrations after administration of the compounds alone or in combination ([2]; COMPOUND 1 and lamotrigine): similar | plasma and brain concentrations after administration of the compounds alone or in combination ([2]; COMPOUND 1 and valproic acid): similar | concentration at 3 h ([2]; brain, oral, analyte COMPOUND 1, COMPOUND 1 10 mg/kg 3 h + LEV 1 mg/kg 1 h before stimulus, oral gavage, mean ± SEM, read-out: Brain concentration total): 1930 ± 100 ng/g | concentration at 3 h ([2]; brain, oral, analyte COMPOUND 1, COMPOUND 1 10 mg/kg 3 h + LEV 3 mg/kg 1 h before stimulus, oral gavage, mean ± SEM, read-out: Brain concentration total): 2520 ± 190 ng/g | concentration at 3 h ([2]; brain, oral, analyte COMPOUND 1, COMPOUND 1 10 mg/kg 3 h + LEV 10 mg/kg 1 h before stimulus, oral gavage, mean ± SEM, read-out: Brain concentration total): 2030 ± 137 ng/g | concentration at 3 h ([2]; brain, oral, analyte COMPOUND 1, COMPOUND 1 10 mg/kg 3 h + LEV 50 mg/kg 1 h before stimulus, oral gavage, mean ± SEM, read-out: Brain concentration total): 1810 ± 93 ng/g | concentration at 3 h ([2]; brain, oral, analyte COMPOUND 1, COMPOUND 1 10 mg/kg 3 h + LTG 10 mg/kg 1 h before stimulus, oral gavage, mean ± SEM, read-out: Brain concentration total): 1420 ± 165 ng/g | concentration at 3 h ([2]; brain, oral, analyte COMPOUND 1, COMPOUND 1 10 mg/kg 3 h + VPA 100 mg/kg 1 h before stimulus, oral gavage, mean ± SEM, read-out: Brain concentration total): 2040 ± 178 ng/g | concentration at 3 h ([2]; brain, oral, analyte COMPOUND 1, COMPOUND 1 10 mg/kg 3 h + VPA 200 mg/kg 1 h before stimulus, oral gavage, mean ± SEM, read-out: Brain concentration total): 1640 ± 52 ng/g | concentration at 3 h ([2]; brain, oral, analyte COMPOUND 1, COMPOUND 1 30 mg/kg 3 h + LEV 3 mg/kg 1 h before stimulus, oral gavage, mean ± SEM, read-out: Brain concentration total): 5960 ± 330 ng/g | concentration at 3 h ([2]; brain, oral, analyte COMPOUND 1, COMPOUND 1 30 mg/kg 3 h + LEV 10 mg/kg 1 h before stimulus, oral gavage, mean ± SEM, read-out: Brain concentration total): 5470 ± 533 ng/g | concentration at 3 h ([2]; brain, oral, analyte COMPOUND 1, COMPOUND 1 30 mg/kg 3 h + LEV 50 mg/kg 1 h before stimulus, oral gavage, mean ± SEM, read-out: Brain concentration total): 4690 ± 399 ng/g | concentration at 3 h ([2]; brain, oral, analyte COMPOUND 1, COMPOUND 1 30 mg/kg 3 h + LTG 3 mg/kg 1 h before stimulus, oral gavage, mean ± SEM, read-out: Brain concentration total): 5030 ± 238 ng/g | concentration at 3 h ([2]; brain, oral, analyte COMPOUND 1, COMPOUND 1 30 mg/kg 3 h + LTG 10 mg/kg 1 h before stimulus, oral gavage, mean ± SEM, read-out: Brain concentration total): 4260 ± 350 ng/g | concentration at 3 h ([2]; brain, oral, analyte COMPOUND 1, COMPOUND 1 30 mg/kg 3 h + LTG 30 mg/kg 1 h before stimulus, oral gavage, mean ± SEM, read-out: Brain concentration total): 3290 ± 170 ng/g | concentration at 3 h ([2]; brain, oral, analyte COMPOUND 1, COMPOUND 1 30 mg/kg 3 h + VPA 30 mg/kg 1 h before stimulus, oral gavage, mean ± SEM, read-out: Brain concentration total): 5100 ± 375 ng/g | concentration at 3 h ([2]; brain, oral, analyte COMPOUND 1, COMPOUND 1 30 mg/kg 3 h + VPA 100 mg/kg 1 h before stimulus, oral gavage, mean ± SEM, read-out: Brain concentration total): 5980 ± 336 ng/g | concentration at 3 h ([2]; brain, oral, analyte COMPOUND 1, COMPOUND 1 30 mg/kg 3 h + VPA 200 mg/kg 1 h before stimulus, oral gavage, mean ± SEM, read-out: Brain concentration total): 4990 ± 245 ng/g | concentration at 3 h ([2]; brain, po, 10 mg/kg, analyte COMPOUND 1, COMPOUND 1 10 mg/kg 3 h + vehicle 1 h before stimulus, oral gavage, mean ± SEM, read-out: Brain concentration total): 1450 ± 104 ng/g | concentration at 3 h ([2]; brain, po, 30 mg/kg, analyte COMPOUND 1, COMPOUND 1 30 mg/kg 3 h + vehicle 1 h before stimulus, oral gavage, mean ± SEM, read-out: Brain concentration total): 5230 ± 487 ng/g | concentration at 3 h ([2]; plasma, oral, analyte COMPOUND 1, COMPOUND 1 10 mg/kg 3 h + LEV 1 mg/kg 1 h before stimulus, oral gavage, mean ± SEM, read-out: Plasma concentration total): 1500 ± 112 ng/mL | concentration at 3 h ([2]; plasma, oral, analyte COMPOUND 1, COMPOUND 1 10 mg/kg 3 h + LEV 3 mg/kg 1 h before stimulus, oral gavage, mean ± SEM, read-out: Plasma concentration total): 1600 ± 111 ng/mL | concentration at 3 h ([2]; plasma, oral, analyte COMPOUND 1, COMPOUND 1 10 mg/kg 3 h + LEV 10 mg/kg 1 h before stimulus, oral gavage, mean ± SEM, read-out: Plasma concentration total): 1590 ± 142 ng/mL | concentration at 3 h ([2]; plasma, oral, analyte COMPOUND 1, COMPOUND 1 10 mg/kg 3 h + LEV 50 mg/kg 1 h before stimulus, oral gavage, mean ± SEM, read-out: Plasma concentration total): 1720 ± 124 ng/mL | concentration at 3 h ([2]; plasma, oral, analyte COMPOUND 1, COMPOUND 1 10 mg/kg 3 h + LTG 10 mg/kg 1 h before stimulus, oral gavage, mean ± SEM, read-out: Plasma concentration total): 1290 ± 140 ng/mL | concentration at 3 h ([2]; plasma, oral, analyte COMPOUND 1, COMPOUND 1 10 mg/kg 3 h + VPA 100 mg/kg 1 h before stimulus, oral gavage, mean ± SEM, read-out: Plasma concentration total): 710 ± 80 ng/mL | concentration at 3 h ([2]; plasma, oral, analyte COMPOUND 1, COMPOUND 1 10 mg/kg 3 h + VPA 200 mg/kg 1 h before stimulus, oral gavage, mean ± SEM, read-out: Plasma concentration total): 1160 ± 73 ng/mL | concentration at 3 h ([2]; plasma, oral, analyte COMPOUND 1, COMPOUND 1 30 mg/kg 3 h + LEV 3 mg/kg 1 h before stimulus, oral gavage, mean ± SEM, read-out: Plasma concentration total): 4530 ± 224 ng/mL | concentration at 3 h ([2]; plasma, oral, analyte COMPOUND 1, COMPOUND 1 30 mg/kg 3 h + LEV 10 mg/kg 1 h before stimulus, oral gavage, mean ± SEM, read-out: Plasma concentration total): 4120 ± 315 ng/mL | concentration at 3 h ([2]; plasma, oral, analyte COMPOUND 1, COMPOUND 1 30 mg/kg 3 h + LEV 50 mg/kg 1 h before stimulus, oral gavage, mean ± SEM, read-out: Plasma concentration total): 3720 ± 351 ng/mL | concentration at 3 h ([2]; plasma, oral, analyte COMPOUND 1, COMPOUND 1 30 mg/kg 3 h + LTG 3 mg/kg 1 h before stimulus, oral gavage, mean ± SEM, read-out: Plasma concentration total): 4550 ± 293 ng/mL | concentration at 3 h ([2]; plasma, oral, analyte COMPOUND 1, COMPOUND 1 30 mg/kg 3 h + LTG 10 mg/kg 1 h before stimulus, oral gavage, mean ± SEM, read-out: Plasma concentration total): 3960 ± 372 ng/mL | concentration at 3 h ([2]; plasma, oral, analyte COMPOUND 1, COMPOUND 1 30 mg/kg 3 h + LTG 30 mg/kg 1 h before stimulus, oral gavage, mean ± SEM, read-out: Plasma concentration total): 2920 ± 150 ng/mL | concentration at 3 h ([2]; plasma, oral, analyte COMPOUND 1, COMPOUND 1 30 mg/kg 3 h + VPA 30 mg/kg 1 h before stimulus, oral gavage, mean ± SEM, read-out: Plasma concentration total): 3150 ± 296 ng/mL | concentration at 3 h ([2]; plasma, oral, analyte COMPOUND 1, COMPOUND 1 30 mg/kg 3 h + VPA 100 mg/kg 1 h before stimulus, oral gavage, mean ± SEM, read-out: Plasma concentration total): 2820 ± 256 ng/mL | concentration at 3 h ([2]; plasma, oral, analyte COMPOUND 1, COMPOUND 1 30 mg/kg 3 h + VPA 200 mg/kg 1 h before stimulus, oral gavage, mean ± SEM, read-out: Plasma concentration total): 2110 ± 118 ng/mL | concentration at 3 h ([2]; plasma, po, 10 mg/kg, analyte COMPOUND 1, COMPOUND 1 10 mg/kg 3 h + vehicle 1 h before stimulus, oral gavage, mean ± SEM, read-out: Plasma concentration total): 2120 ± 175 ng/mL | concentration at 3 h ([2]; plasma, po, 30 mg/kg, analyte COMPOUND 1, COMPOUND 1 30 mg/kg 3 h + vehicle 1 h before stimulus, oral gavage, mean ± SEM, read-out: Plasma concentration total): 3090 ± 297 ng/mL | Brain concentration total [2, 3]: 1895 ± 75 ng/g and 2379 ± 164 ng/g and 1965 ± 138 ng/g and 1743 ± 158 ng/g and 1435 ± 55 ng/g and 1197 ± 80 ng/g | Plasma concentration total [2, 3]: 1128 ± 98 ng/mL and 1858 ± 116 ng/mL and 1894 ± 113 ng/mL and 1785 ± 186 ng/mL and 1318 ± 77 ng/mL and 1522 ± 109 ng/mL
